Assay results published in US20080275058A1, “N-Substituted-1H-Quinoline-2,4-Diones, Preparation Method Thereof, And Pharmaceutical Composition Containing The Same” (KOREA RESEARCH INSTITUTE OF CHEMICAL TECHNOLOGY, priority 2005, published 2008).
Read-outs that look alike come from different tables or passages of the source.

Tests used:
[1] = target: T1, hD3 (Homo sapiens, UniProt P35462); assay: Radioligand binding, dopamine D3 ([3H]spiperone); settings: Table 4; [3H]spiperone 1 nM; read-out: Binding affinity, IC50 (nM) D3
T1 construct: purchased BioSignal Packard Inc., Montreal, Canada
T1 sequence (P35462 whole entry): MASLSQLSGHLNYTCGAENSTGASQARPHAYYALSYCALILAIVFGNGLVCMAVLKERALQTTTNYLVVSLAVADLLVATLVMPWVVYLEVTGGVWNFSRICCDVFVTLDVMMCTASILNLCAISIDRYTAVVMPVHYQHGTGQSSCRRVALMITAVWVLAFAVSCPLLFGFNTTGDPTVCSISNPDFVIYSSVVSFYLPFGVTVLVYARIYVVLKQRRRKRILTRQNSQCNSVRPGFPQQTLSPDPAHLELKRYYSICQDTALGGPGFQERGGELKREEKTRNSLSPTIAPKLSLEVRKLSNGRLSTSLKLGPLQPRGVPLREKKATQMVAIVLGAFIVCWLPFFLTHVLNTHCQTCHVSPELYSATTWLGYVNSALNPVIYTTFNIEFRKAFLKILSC
Summary of the method: (§1)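 Membrane competition binding with [3H]spiperone (1 nM) for hD2L and hD3, or [3H]YM-09151-2 (0.06 nM) for hD4.2, each in receptor-specific Tris-HCl pH 7.4 buffer containing Mg2+/EDTA (D3 and D4 also with K+, Ca2+; D3 with 120 mM NaCl). Compounds were tested at 7-8 concentrations in duplicate, and IC50 was derived by nonlinear regression across three assays.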

[2] = target: T2, 5-HT2a (Homo sapiens, UniProt P28223); assay: Radioligand binding, 5-HT2a ([3H]Ketanserin); settings: Table 4; [3H]Ketanserin 1 nM; read-out: Binding affinity, IC50 (nM) 5-HT2a
T2 construct: purchased Euroscreen/BioSignal Packard Inc
T2 sequence (P28223 whole entry): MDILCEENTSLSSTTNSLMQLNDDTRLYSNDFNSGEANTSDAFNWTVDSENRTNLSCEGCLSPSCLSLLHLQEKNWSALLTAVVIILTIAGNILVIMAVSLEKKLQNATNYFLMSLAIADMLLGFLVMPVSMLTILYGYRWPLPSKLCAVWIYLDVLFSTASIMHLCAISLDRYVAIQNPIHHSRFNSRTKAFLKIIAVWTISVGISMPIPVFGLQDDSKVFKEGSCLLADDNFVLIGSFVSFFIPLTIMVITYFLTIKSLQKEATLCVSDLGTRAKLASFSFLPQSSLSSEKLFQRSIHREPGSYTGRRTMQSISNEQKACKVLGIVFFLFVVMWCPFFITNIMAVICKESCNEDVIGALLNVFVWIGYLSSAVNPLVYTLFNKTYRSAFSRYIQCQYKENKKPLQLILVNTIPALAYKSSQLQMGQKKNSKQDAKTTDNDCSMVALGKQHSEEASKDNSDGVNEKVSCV

[3] = target: T3, hD2L (Homo sapiens, UniProt P14416); assay: Radioligand binding, dopamine D2 ([3H]spiperone); settings: Table 4; [3H]spiperone 1 nM; read-out: Binding affinity, IC50 (nM) D2
T3 construct: purchased BioSignal Packard Inc., Montreal, Canada
T3 sequence (P14416 whole entry): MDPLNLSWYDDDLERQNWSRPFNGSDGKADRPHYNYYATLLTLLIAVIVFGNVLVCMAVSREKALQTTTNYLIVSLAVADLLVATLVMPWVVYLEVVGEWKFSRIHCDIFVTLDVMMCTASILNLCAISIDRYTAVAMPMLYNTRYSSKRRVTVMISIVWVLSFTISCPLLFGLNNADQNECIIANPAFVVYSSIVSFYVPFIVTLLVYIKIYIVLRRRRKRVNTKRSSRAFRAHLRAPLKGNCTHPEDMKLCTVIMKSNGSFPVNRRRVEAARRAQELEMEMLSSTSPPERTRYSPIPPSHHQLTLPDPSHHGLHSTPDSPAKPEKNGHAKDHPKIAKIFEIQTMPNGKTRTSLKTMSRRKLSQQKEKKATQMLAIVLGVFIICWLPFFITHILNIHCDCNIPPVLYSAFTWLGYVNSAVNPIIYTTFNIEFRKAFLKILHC
Summary of the method: as §1

[4] = target: T4, 5-HT1a (Homo sapiens, UniProt P08908); assay: Radioligand binding, 5-HT1a ([3H]8-OH-DPAT); settings: Table 4; [3H]8-OH-DPAT 0.5 nM; read-out: Binding affinity, IC50 (nM) 5-HT1a
T4 construct: purchased Euroscreen/BioSignal Packard Inc
T4 sequence (P08908 1-422): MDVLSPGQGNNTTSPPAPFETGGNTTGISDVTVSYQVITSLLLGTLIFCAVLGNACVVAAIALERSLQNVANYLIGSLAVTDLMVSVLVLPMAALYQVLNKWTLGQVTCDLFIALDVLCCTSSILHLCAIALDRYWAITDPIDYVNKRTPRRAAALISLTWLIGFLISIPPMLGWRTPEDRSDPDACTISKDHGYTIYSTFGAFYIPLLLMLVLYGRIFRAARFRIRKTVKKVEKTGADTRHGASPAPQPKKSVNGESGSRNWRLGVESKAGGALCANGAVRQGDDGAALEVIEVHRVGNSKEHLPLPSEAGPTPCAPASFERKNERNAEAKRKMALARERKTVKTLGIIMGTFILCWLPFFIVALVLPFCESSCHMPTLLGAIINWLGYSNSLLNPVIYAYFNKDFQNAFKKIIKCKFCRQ
Summary of the method: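 Binding was measured on commercial receptor membrane preparations, following the membrane supplier's own test protocol.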

[5] = target: T5, Human serotonin 5-HT6 receptor (Homo sapiens, UniProt P50406); assay: [3H]LSD binding assay on cloned 5-HT6 receptor membranes; settings: for binding affinity at 5-HT6 receptor labeled by [3H]LSD, in words: comment on Table 2
T5 construct: made in house; host or cells: insect Sf21 cells (baculovirus vector BacPAK8)
T5 sequence (P50406 whole entry): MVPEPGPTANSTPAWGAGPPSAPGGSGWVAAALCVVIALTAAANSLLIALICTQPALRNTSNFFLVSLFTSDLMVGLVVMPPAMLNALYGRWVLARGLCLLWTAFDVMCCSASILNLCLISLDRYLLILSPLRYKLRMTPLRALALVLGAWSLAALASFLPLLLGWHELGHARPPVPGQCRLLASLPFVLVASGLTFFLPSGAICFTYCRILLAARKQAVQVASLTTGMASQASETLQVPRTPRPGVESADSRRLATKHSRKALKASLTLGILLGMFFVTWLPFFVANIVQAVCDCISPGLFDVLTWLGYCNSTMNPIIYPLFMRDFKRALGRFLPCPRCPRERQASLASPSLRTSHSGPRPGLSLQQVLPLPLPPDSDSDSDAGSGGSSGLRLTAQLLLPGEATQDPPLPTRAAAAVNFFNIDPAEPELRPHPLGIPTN

[6] = target: T6, 5-HT2c (Homo sapiens, UniProt P28335); assay: Radioligand binding, 5-HT2c ([3H]Mesulergine); settings: Table 4; [3H]Mesulergine 1 nM; read-out: Binding affinity, IC50 (nM) 5-HT2c
T6 construct: purchased Euroscreen/BioSignal Packard Inc
T6 sequence (P28335 33-458): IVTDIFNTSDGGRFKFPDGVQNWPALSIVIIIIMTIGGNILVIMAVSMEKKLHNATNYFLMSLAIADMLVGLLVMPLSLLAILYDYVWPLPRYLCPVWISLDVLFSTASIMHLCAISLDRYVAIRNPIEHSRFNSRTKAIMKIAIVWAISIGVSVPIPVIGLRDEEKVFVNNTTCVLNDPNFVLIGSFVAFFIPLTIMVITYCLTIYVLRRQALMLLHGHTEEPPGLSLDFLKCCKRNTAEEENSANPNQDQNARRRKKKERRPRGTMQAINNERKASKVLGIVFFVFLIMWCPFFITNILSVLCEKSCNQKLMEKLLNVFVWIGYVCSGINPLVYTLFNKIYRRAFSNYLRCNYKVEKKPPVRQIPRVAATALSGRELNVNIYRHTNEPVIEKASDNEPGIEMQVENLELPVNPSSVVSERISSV

[7] = target: T7, hD4.2 receptor (Homo sapiens, UniProt P21917, DEL265-296); assay: Radioligand binding, dopamine D4 ([3H]YM-09151-2); settings: Table 4; [3H]YM-09151-2 0.06 nM; read-out: Binding affinity, IC50 (nM) D4
T7 construct: purchased BioSignal Packard Inc., Montreal, Canada
T7 sequence (P21917 with tags, fused parts or gaps DEL265-296): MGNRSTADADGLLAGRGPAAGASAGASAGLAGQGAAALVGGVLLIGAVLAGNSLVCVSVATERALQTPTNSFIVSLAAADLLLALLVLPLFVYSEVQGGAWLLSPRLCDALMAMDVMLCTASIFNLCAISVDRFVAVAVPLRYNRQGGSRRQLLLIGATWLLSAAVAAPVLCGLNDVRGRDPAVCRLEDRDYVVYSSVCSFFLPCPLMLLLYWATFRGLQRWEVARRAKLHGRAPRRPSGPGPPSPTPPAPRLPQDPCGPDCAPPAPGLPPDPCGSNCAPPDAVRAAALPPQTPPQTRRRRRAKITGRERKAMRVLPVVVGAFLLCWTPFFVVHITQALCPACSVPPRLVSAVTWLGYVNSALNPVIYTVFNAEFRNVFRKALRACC
Summary of the method: as §1

[8] = Rotarod deficit in mice; type: in vivo, mouse; settings: mouse, in vivo, po, unit printed as image, read-out: TD50 (median neurotoxic dose)
Procedure: (§2) The mouse was placed on a 1 inch diameter knurled plastic rod rotating at 6 rpm (Ugo-Basile, Milano, Italy), and the rotarod deficit (%) was obtained by counting the number of animals fallen from the rotating rod within 1 min [Dunham et al., 1957] at 60, 90 and 120 min after the injection of the compound according to the invention(200, 300 or 400 ? ). […] The compounds of the examples were suspended in 3% Tween 80 solution, and were administered (p.o.) 60 min before the testing.

[9] = test system: mice; assay: Rotarod deficit in mice; type: in vivo, mouse
Procedure: as §2

[10] = target: T8, 5-HT7 (Homo sapiens, UniProt P34969); assay: Radioligand binding, 5-HT7 ([3H]LSD); settings: Table 4; [3H]LSD 3 nM; read-out: Binding affinity, IC50 (nM) 5-HT7
T8 construct: purchased Euroscreen/BioSignal Packard Inc
T8 sequence (P34969 whole entry): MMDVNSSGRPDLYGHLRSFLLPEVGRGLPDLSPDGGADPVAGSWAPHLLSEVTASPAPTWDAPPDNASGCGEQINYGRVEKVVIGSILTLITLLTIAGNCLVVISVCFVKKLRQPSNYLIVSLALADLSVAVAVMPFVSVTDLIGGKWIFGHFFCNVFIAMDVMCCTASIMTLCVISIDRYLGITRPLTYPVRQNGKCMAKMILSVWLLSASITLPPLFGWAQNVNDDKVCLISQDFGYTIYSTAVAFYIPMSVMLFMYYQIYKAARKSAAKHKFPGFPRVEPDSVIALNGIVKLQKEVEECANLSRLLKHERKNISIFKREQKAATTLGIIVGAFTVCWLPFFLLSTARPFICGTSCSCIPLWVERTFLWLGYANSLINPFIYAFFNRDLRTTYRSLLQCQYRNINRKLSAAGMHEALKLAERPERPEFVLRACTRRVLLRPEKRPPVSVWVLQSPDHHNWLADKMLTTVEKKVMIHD

[11] = target: D1 (Homo sapiens, UniProt P21728); assay: Radioligand binding, dopamine D1; settings: Table 4; read-out: Binding affinity, IC50 (nM) D1
Chain of D1 (P21728 whole entry): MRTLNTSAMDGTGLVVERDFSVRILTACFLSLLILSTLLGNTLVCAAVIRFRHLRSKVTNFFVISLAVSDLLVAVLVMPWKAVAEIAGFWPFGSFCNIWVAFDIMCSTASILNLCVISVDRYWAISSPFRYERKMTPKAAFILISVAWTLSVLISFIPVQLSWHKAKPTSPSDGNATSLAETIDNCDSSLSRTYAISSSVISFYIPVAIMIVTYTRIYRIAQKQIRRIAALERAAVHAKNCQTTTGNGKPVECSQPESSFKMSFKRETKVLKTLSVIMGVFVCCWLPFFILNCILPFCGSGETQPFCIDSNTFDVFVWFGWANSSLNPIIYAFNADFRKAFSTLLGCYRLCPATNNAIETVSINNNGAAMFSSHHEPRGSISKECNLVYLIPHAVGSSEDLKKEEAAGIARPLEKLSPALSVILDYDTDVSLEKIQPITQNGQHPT

[12] = Table 2, 1.87 nM [3H]LSD, 37 C, 60 min, read-out: IC50 (nM), binding affinity to the 5-HT6 receptor
[13] = Table 4, read-out: Binding affinity, IC50 (nM) 5-HT6

Compound	IC50 [1]	IC50 [2]	IC50 [3]	IC50 [4]	IC50 [5, 12]	IC50 [5, 13]	binding affinity at 5-HT6 receptor labeled by [3H]LSD, in words [5]	IC50 [6]	IC50 [7]	TD50 at 120 min [8]	Rotarod deficit (%) ([9]; 200 p.o. (dose unit not given))	Rotarod deficit (%) ([9]; 300 p.o. (dose unit not given))	Rotarod deficit (%) ([9]; 400 p.o. (dose unit not given))	IC50 [10]	IC50 [11]	melting point
C[C@]1(c2ccc(O)cc2)C(=O)c2c(N3CCNCC3)cc(Cl)cc2N(Cc2ccccc2)C1=O [Example 14-1, (S)-1-Benzyl-7-chloro-3-(4-hydroxy-phenyl)-3-methyl-5-piperazin-1-yl-1H-quinoline-2,4-dione]	7650 nM	2000 nM	> 10000 nM	7950 nM	1.9 nM	1.9 nM	significant affinities	> 10000 nM	> 10000 nM	> 400 mg/kg	0%	0%	0%	9860 nM	7070 nM	
COc1ccc([C@@]2(C)C(=O)c3c(N4CCNCC4)cc(Cl)cc3N(Cc3ccccc3)C2=O)cc1 [Example 13-1, (S)-1-Benzyl-7-chloro-3-(4-methoxy-phenyl)-3-methyl-5-piperazin-1-yl-1H-quinoline-2,4-dione]	8930 nM	2510 nM	> 10000 nM	5430 nM	1.4 nM	1.4 nM	significant affinities	7740 nM	> 10000 nM	> 400 mg/kg	0%	0%	0%	5850 nM	6150 nM	
COc1ccc([C@]2(C)C(=O)c3c(N4CCNCC4)cc(Cl)cc3N(Cc3ccccc3)C2=O)cc1 [Example 13-2, (R)-1-Benzyl-7-chloro-3-(4-methoxy-phenyl)-3-methyl-5-piperazin-1-yl-1H-quinoline-2,4-dione]	2580 nM	2840 nM	> 10000 nM	3280 nM	9 nM	9 nM		9740 nM	> 10000 nM	> 400 mg/kg	0%	0%	0%	9520 nM	5210 nM	
CN1CCN(c2cc(Cl)cc3c2C(=O)C(C)(c2ccc(O)cc2)C(=O)N3Cc2cccc(N)c2)CC1 (centres unmarked) [Example 10, 1-(3-Amino-benzyl)-7-chloro-3-(4-hydroxy-phenyl)-3-methyl-5-(4-methyl-piperazin-1-yl)-1H-quinoline-2,4-dione]	5370 nM	> 10000 nM	> 10000 nM	> 10000 nM	6.2 nM	6.2 nM		> 10000 nM	> 10000 nM	> 400 mg/kg	0%	0%	0%	> 10000 nM	> 10000 nM	
COc1ccc(C2(C)C(=O)c3c(N4CCNCC4)cc(Cl)cc3N(Cc3cccc(N)c3)C2=O)cc1 (centres unmarked) [Example 25, 1-(3-Amino-benzyl)-7-chloro-3-(4-methoxy-phenyl)-3-methyl-5-piperazin-1yl-1H-quinoline-2,4-dione]	9660 nM	6610 nM	7650 nM	5890 nM	6.2 nM	15.9 nM		7600 nM	9750 nM					8050 nM	6520 nM	183 to 184 °C
CC1(c2ccccc2)C(=O)c2c(N3CCNCC3)cc(Cl)cc2N(Cc2ccccc2)C1=O (centres unmarked) [Example 22, 1-Benzyl-7-chloro-3-methyl-3-phenyl-5-piperazin-1-yl-1H-quinoline-2,4-dione]	1810 nM	2900 nM	2450 nM	3910 nM	2.7 nM	2.3 nM		1830 nM	> 10000 nM	> 400 mg/kg	0%	0%	0%	5070 nM	5140 nM	
COc1ccc(C2(C)C(=O)c3c(N4CCNCC4)cc(Cl)cc3N(Cc3nc4ccccc4[nH]3)C2=O)cc1 (centres unmarked) [Example 43, 1-(1H-Benzoimidazol-2-ylmethyl)-7-chloro-3-(4-methoxy-phenyl)-3-methyl-5-piperazin-1-yl-1H-quinoline-2,4-dione]	9440 nM	5800 nM	9010 nM	8020 nM	137 nM	19.3 nM		7890 nM	9470 nM					9520 nM	6350 nM	178 to 179 °C
COc1ccc(C2(C)C(=O)c3c(N4CCNCC4)cc(Cl)cc3N(Cc3ccccc3Br)C2=O)cc1 (centres unmarked) [Example 35, 1-(2-Bromo-benzyl)-7-chloro-3-(4-methoxy-phenyl)-3-methyl-5-piperazin-1-yl-1H-quinoline-2,4-dione]	9450 nM	7640 nM	7150 nM	9510 nM	9.2 nM	16.4 nM		7720 nM	8880 nM					7820 nM	9750 nM	150 to 151 °C
COc1ccc(C2(C)C(=O)c3c(N4CCNCC4)cc(Cl)cc3N(CC3CCCCC3)C2=O)cc1 (centres unmarked) [Example 48, 7-Chloro-1-cyclohexylmethyl-3-(4-methoxy-phenyl)-3-methyl-5-piperazin-1-yl-1H-quinoline-2,4-dione]	8990 nM	5910 nM	7510 nM	7540 nM	251 nM	16 nM		8660 nM	9010 nM					8520 nM	7650 nM	127 to 128 °C
